Values quoted from earlier work, collected in article PMC7395068, “The evolution of strategies to minimise the risk of human drug-induced liver injury (DILI) in drug discovery and development” (Archives of Toxicology, 2020).
Counter-ions that a name gives are not always drawn. Like-named read-outs stand apart in the source and are kept apart here.

Key:
[1] = tested on: human hepatocytes; settings: cited from earlier work; for Structural based (HCI), In vitro Assay: human hepatocyte imaging
[2] = cited from earlier work
[3] = assignment in Xu 2008, ref Xu 2008

CC1(C)[C@@H](OC(=O)CCC(=O)[O-])CC[C@]2(C)[C@H]3C(=O)C=C4[C@@H]5C[C@@](C)(C(=O)[O-])CC[C@]5(C)CC[C@@]4(C)[C@]3(C)CC[C@@H]12.[Na+].[Na+] [carbenoxolone disodium]
Structural based (HCI) [1]: -VE | In vivo DILI ([2]; in vivo): -VE

OCCN1CCN(CC/C=C2/c3ccccc3Sc3ccc(C(F)(F)F)cc32)CC1 [cis(z)-flupentixol]
Structural based (HCI) [1]: -VE | In vivo DILI ([2]; in vivo): -VE

NC1CCN(c2c(F)cc3c(=O)c(C(=O)O)cn(C4CC4)c3c2Cl)C1 (stereo not shown) [clinafloxacin]
Structural based (HCI) ([1]; In vitro Assay, ref Xu 2008): -VE | In vivo DILI ([2]; ref Xu 2008): -VE

N[C@H]1C(O)O[C@H](CO)[C@H](O)[C@@H]1O (stereo partly drawn) [d-galactosamine]
Structural based (HCI) [1]: -VE | In vivo DILI ([2]; in vivo): +VE

CC(C)N(CCC(C(N)=O)(c1ccccc1)c1ccccn1)C(C)C (stereo not shown) [disopyramide phosphate]
Structural based (HCI) ([1]; In vitro Assay, ref Xu 2008): -VE | In vivo DILI ([2]; ref Xu 2008): +VE

CCO.C[C@H]1c2cccc(O)c2C(O)=C2C(=O)[C@]3(O)C(O)=C(C(N)=O)C(=O)[C@@H](N(C)C)[C@@H]3[C@@H](O)[C@@H]21.C[C@H]1c2cccc(O)c2C(O)=C2C(=O)[C@]3(O)C(O)=C(C(N)=O)C(=O)[C@@H](N(C)C)[C@@H]3[C@@H](O)[C@@H]21.Cl.Cl.O [doxycycline hyclate]
Structural based (HCI) [1]: +VE | In vivo DILI ([2]; in vivo): +VE

C[C@@H](CO)NC(=O)[C@@H]1C=C2c3cccc4[nH]cc(c34)C[C@H]2N(C)C1 [ergonovine maleate]
Structural based (HCI) ([1]; In vitro Assay, ref Xu 2008): -VE | In vivo DILI ([2]; ref Xu 2008): -VE

C[C@]12CC[C@@H]3c4ccc(O)cc4CC[C@H]3[C@@H]1CC[C@@H]2O[C@@H]1O[C@H](C(=O)O)[C@@H](O)[C@H](O)[C@H]1O [estradiol 17b glucuronide]
Structural based (HCI) [1]: -VE | In vivo DILI ([2]; in vivo): +VE

N#CC(C#N)=NNc1ccc(OC(F)(F)F)cc1 [fccp]
Structural based (HCI) ([1]; In vitro Assay, ref Xu 2008): +VE | In vivo DILI ([2]; ref O'Brien 2006): +VE | In vivo DILI ([2]; ref Xu 2008): +VE

CC(C(=O)O)c1cccc(Oc2ccccc2)c1 (stereo not shown) [fenoprofen sodium]
Structural based (HCI) ([1]; In vitro Assay, ref Xu 2008): +VE | In vivo DILI ([2]; ref Xu 2008): +VE

CC(Cc1ccc(O)cc1)NCC(O)c1cc(O)cc(O)c1 (stereo not shown) [fenoterol hbr]
Structural based (HCI) [1]: -VE | In vivo DILI ([2]; in vivo): +VE

O=c1[nH]c(=O)n([C@H]2C[C@H](O)[C@@H](CO)O2)cc1F [floxuridine]
Structural based (HCI) ([1]; In vitro Assay, ref Xu 2008): -VE | In vivo DILI ([2]; […]): +VE | In vivo DILI ([2]; ref Xu 2008): +VE

O.O=[N+]([O-])[O][Ga]([O][N+](=O)[O-])[O][N+](=O)[O-] [gallium nitrate hydrate]
Structural based (HCI), In vitro Assay ([1]; ref Xu 2008): -VE | In vivo DILI [2, 3]: -VE

COc1c(N2CCNC(C)C2)c(F)cc2c(=O)c(C(=O)O)cn(C3CC3)c12 (stereo not shown) [gatifloxacin]
Structural based (HCI), In vitro Assay ([1]; ref Xu 2008): -VE | In vivo DILI [2, 3]: -VE

O=c1[nH]c(=O)n([C@H]2C[C@H](O)[C@@H](CO)O2)cc1I [idoxuridine]
Structural based (HCI), In vitro Assay ([1]; ref Xu 2008): -VE | In vivo DILI [2, 3]: +VE

CCSCC[C@H](N)C(=O)O [l-ethionine]
Structural based (HCI), In vitro Assay ([1]; ref Xu 2008): -VE | In vivo DILI [2, 3]: +VE

CC(=O)O[C@]1(C(C)=O)CC[C@H]2[C@@H]3C[C@H](C)C4=CC(=O)CC[C@]4(C)[C@H]3CC[C@@]21C [medroxyprogesterone acetate]
Structural based (HCI), In vitro Assay ([1]; ref Xu 2008): -VE | In vivo DILI [2, 3]: -VE

CN1CCCCC1CCN1c2ccccc2Sc2ccc([S+](C)[O-])cc21 (stereo not shown) [mesoridazine besylate]
Structural based (HCI), In vitro Assay ([1]; ref Xu 2008): -VE | In vivo DILI [2, 3]: +VE

COc1ccc(OC)c(C(O)C(C)N)c1 (stereo not shown) [methoxamine]
Structural based (HCI), In vitro Assay ([1]; ref Xu 2008): -VE | In vivo DILI [2, 3]: -VE
